# According to US4370331A, “L-Glaucine containing composition for cough relief” (Karl O. Helm Aktiengesellschaft, priority 1977, dated 1983):
# Where “and” joins values, the source holds several entries; their conditions need not be identical. Equal values may be shown once. Where a name gives a salt, the structure may show the parent alone. Read-outs that look alike come from different tables or passages of the source.
# Assays:
# cough pulses [1] = assay: Oral citric acid aerosol cough test in guinea pigs, time course 1-24 h, Comparative test 6; assay type: in vivo; conditions: for Cough pulses during 8 minutes, percent of control value, after 1 h / Cough pulses during 8 minutes, percent of control value, after 3 h / Cough pulses during 8 minutes, percent of control value, after 5 h / Cough pulses during 8 minutes, percent of control value, after 24 h: codeine phosphate 75, d,l-glaucine hydrobromide 150, hydrochloride 135, embonate 378 mg/kg
# Experimental: In a further comparative test, 40 female guinea pigs with body weights between 230 and 500 g were divided into 4 groups and each animal was again subjected to the action of a 20% citric acid aerosol for 8 minutes. From the control values thus obtained the average control value for each group was calculated. Each animal of each group was then given, by means of a throat probe, either 75 mg/kg of codeine phosphate, or 135 mg/kg of d,l-glaucine hydrochloride, or 150 mg/kg of d,1-glaucine hydrobromide, or 378 mg/kg of d,l-glaucine embonate. These doses are the equimolar quantities, based on glaucine. After a period of 1, or 3, or 5, or 24 hours each animal was again subjected for 8 minutes to the action of the citric acid aerosol, and the number of cough pulses during this period was recorded. The values thus obtained were compared with the control values and the percent deviation of the average measured value for each group, from the average control value, was calculated.
# cough pulses [2] = assay: Citric acid aerosol cough test in guinea pigs, subcutaneous, 30 min (method of Friebel and Reichle), Comparative test 1; assay type: in vivo; conditions: s.c.; for ED50: Cavia porcellus, sc, 0.5 h, 30 min after administering, 20% citric acid aerosol, 8 min
# Experimental: In order to compare the anti-cough effectiveness of codeine phosphate with the effectiveness of the different isomers of glaucine hydrobromide, the testing method of Friebel and Reichle was used. 60 guinea pigs with weights between 200 and 300 g were divided up into ten groups of different sizes. Before administering the active substance, each animal was subjected, on the same day as the day of test with the active substance, for a period of 8 minutes to an aerosol of 20% citric acid, the animal being confined in a chamber at constant air pressure. During this control test the number of cough pulses was counted with the help of a pressure transmitter. From these measurements an average control value for each group was calculated. After this preliminary control test, there was given subcutaneously to each animal of each group a suspension of the active substance in 1% sodium carboxymethyl cellulose. After 30 minutes each animal was again exposed in the test chamber for 8 minutes to the aerosol of 20% citric acid and the number of cough pressure pulses recorded. The different active substances were administered in increasing doses ranging from 3 mg/kg to 100 mg/kg of body weight. Altogether eight different doses were given. The results were expressed as percent deviation from the average control value for the group on the same day, the deviation being entered in a diagram against the logarithm of the dose administered. From the resulting effectiveness curve, based on the logarithm of the dose, the coefficient of correlation and the ED50 were calculated for each active substance, by the regression analysis method of Downie and Heath (1965). The values obtained for codeine phosphate, for d-glaucine hydrobromide, for d,l-glaucine hydrobromide and for l-glaucine hydrobromide thirty minutes after administering the active substance are summarized in Table I.
# intestinal motility = assay: Intestinal motility / evacuation action of stomach-intestinal tract of mice (carbon suspension), Comparative test 2; assay type: in vivo; conditions: s.c., 2 h, control 74.3%, * = significantly different from control (p < 0.05)
# Text: One of the most unpleasant side effects of anti-cough medicine containing codeine is constipation and the occurrence of intestinal spasms. A model test for determining the effects of anti-cough active substances on intestinal motility and on the evacuation action of the stomach-intestinaltract of mice was therefore made. After subcutaneous injection of the active substance, each animal was given, through a throat probe, a 10% suspension of carbon in a 5% aqueous slurry of gum arabic. Two hours later the intestine was sectioned and the distance of stomach coecum measured, and also the distance travelled by the carbon, which was expressed as percent of intestine length.
# The effects of codeine phosphate, of d-glaucine hydrobromide and of l-glaucine hydrobromide on intestinal motility were determined at different doses. For each dose the average value was calculated for a sufficient number of animals.
# [3] = system: isolated guinea pig intestines (contractions induced by electric voltages); assay: Suppression of electrically induced contractions in isolated guinea pig intestines, Comparative test 4; design: electrically induced contractions (Table III): unit not given here
# Experimental: In a further series of tests the effects of different doses of codeine phosphate in suppressing contractions induced in isolated guinea pig intestines by electric voltages were tested. For this purpose one electrode was immersed in the solution surrounding the intestinal preparation. The second electrode was connected to the preparation at the attachment point.
# coughing centre = assay: Coughing reflex by electrical stimulation of upper laryngeal nerves of anaesthetized cats (method of Domenjoz), Comparative test 5; assay type: in vivo; conditions: intravenous; for minimal effective dose: Felis catus, read-out: MED (minimal effective dose completely suppressing the coughing reflex); for minimal effective dose / Duration of cough suppression: anaesthetized cats; for Duration of cough suppression: at MED
# Experimental: In a series of tests conducted by the method of Domenjoz, the effects of the different active substances on the coughing centre was examined by electrical stimulation of the upper laryngeal nerves of anaesthetized cats. Electrical stimulation of the nerve produces a coughing reflex and the intention is to reduce this by intravenous injection of the active substance. The minimal effective dose MED is determined by increasing the dose from 0.1 mg/kg of body weight up to 0.3 mg/kg, 1.0 mg/kg, 3.0 mg/kg and 6.0 mg/kg, until the dose is sufficient for completely suppressing the coughing reflex.
# In these tests each animal was given, on the one hand, codeine and, on the other hand, at sufficient time intervals also glaucine, so that the ratio of the minimal effective doses of glaucine and codeine can be deduced.
# [4] = Toxicity (LD50) in mice by the Wilcox method, Comparative test 7; assay type: in vivo; conditions: mouse, in vivo
# Experimental: (§1) The toxicity thresholds of codeine phosphate, of d-glaucine hydrobromide and of d,l-glaucine hydrobromide were determined in mice by the Wilcox method. […] The toxicities of codeine phosphate and d,l-glaucine hydrobromide are about equal.
# [5] = system: isolated guinea pig intestines (contractions induced by electric voltages); assay: Suppression of electrically induced contractions in isolated guinea pig intestines, Comparative test 4; conditions: isolated guinea pig intestine; codeine: increased doses; d-glaucine: higher concentrations than 4×10^-5; d,l-glaucine: 4×10^-5 to 6×10^-5
# [6] = system: smooth muscles of isolated guinea pigs intestine; assay: Effect on smooth muscles of isolated guinea pig intestine in a bath, Comparative test 3; conditions: for spontaneous activity and tone, in words: molar concentrations between 1×10^-5 and 8×10^-5
# Experimental: Experiments were conducted in vitro to determine the effects of different active substances on the smooth muscles of isolated guinea pigs intestine samples suspended in a bath. After adding to the bath different doses of the active substances, the contractive force of the muscle material was recorded.
# cough pulses [7] = assay: Oral citric acid aerosol cough test in guinea pigs, 1 h (equivalent effective doses), Comparative test 6; assay type: in vivo; conditions: for Cough pulses percent of control value: 20% citric acid aerosol 8 min
# mice = assay: Toxicity (LD50) in mice by the Wilcox method, Comparative test 7; assay type: in vivo; conditions: hydrobromide
# Experimental: as §1
# [8] = po, peroral, read-out: LD50 peroral
# [9] = sc, subcutaneous, read-out: LD50 subcutaneous
compound,measurement,setting,value
"COc1cc2c(cc1OC)-c1c(OC)c(OC)cc3c1C(C2)N(C)CC3 (racemic) [d,l-glaucine hydrochloride]","Cough pulses during 8 minutes, percent of control value, after 1 h",cough pulses [1]; hydrochloride,80%
same,"Cough pulses during 8 minutes, percent of control value, after 3 h",cough pulses [1]; hydrochloride,72%
same,"Cough pulses during 8 minutes, percent of control value, after 5 h",cough pulses [1]; hydrochloride,69%
same,"Cough pulses during 8 minutes, percent of control value, after 24 h",cough pulses [1]; hydrochloride,102%
"COc1cc2c(cc1OC)-c1c(OC)c(OC)cc3c1[C@H](C2)N(C)CC3 [d-glaucine hydrobromide, reference compound]",ED50,cough pulses [2],54 mg/kg
same,Distance travelled average % (of intestine length),intestinal motility; 10 mg/kg,74.6%
same,Distance travelled average % (of intestine length),intestinal motility; 30 mg/kg,80.1%
same,Distance travelled average % (of intestine length),intestinal motility; 100 mg/kg,36.4%
same,"suppression of electrically induced contraction reflexes, in words",[3]; 4×10^-5,suppresses electrically induced contraction reflexes
same,electrically induced contractions (Table III),"[3]; molar concentration 1 × 10^-5, hydrobromide",77 and 95
same,electrically induced contractions (Table III),"[3]; molar concentration 2 × 10^-5, hydrobromide",74 and 79
same,electrically induced contractions (Table III),"[3]; molar concentration 4 × 10^-5, hydrobromide",44 and 36
same,minimal effective dose,coughing centre,1 mg/kg
same,Duration of cough suppression,coughing centre,5 to 39 min
same,LD50,[4]; [8],345 mg/kg
same,LD50,[4]; [9],125 mg/kg
same,"induced spontaneous activity, in words",[5],the increasing spontaneous activity prevents any distinguishing between direct production and electric production of the activity
"COc1cc2c(cc1OC)-c1c(OC)c(OC)cc3c1C(C2)N(C)CC3 (racemic) [d,l-glaucine embonate]","Cough pulses during 8 minutes, percent of control value, after 1 h",cough pulses [1],80%
same,"Cough pulses during 8 minutes, percent of control value, after 3 h",cough pulses [1],51%
same,"Cough pulses during 8 minutes, percent of control value, after 5 h",cough pulses [1],57%
same,"Cough pulses during 8 minutes, percent of control value, after 24 h",cough pulses [1],81%
same,"duration of effect, in words","cough pulses [1]; guinea pigs, 378 mg/kg",considerably longer-lasting effect without any delay in the beginning of the effect
COc1cc2c(cc1OC)-c1c(OC)c(OC)cc3c1[C@@H](C2)N(C)CC3 [l-glaucine],spasmogenic activity,"[6]; in vitro, isolated guinea pig intestine",no spasmogenic activity
same,"spontaneous activity and tone, in words",[6],a reduction in spontaneous activity and no increase in tone
"COc1cc2c(cc1OC)-c1c(OC)c(OC)cc3c1[C@H](C2)N(C)CC3 [d-glaucine, reference compound]","spontaneous activity and tone, in words",[6],dose-dependent increase of spontaneous activity and tone
"COc1ccc2c3c1O[C@H]1[C@@H](O)C=C[C@H]4[C@@H](C2)N(C)CC[C@@]341 [codeine, reference compound]","contractive force of the muscle material, in words",[6]; molar concentrations between 1×10^-5 and 32×10^-5,produces contractions which depend on the dose
"COc1cc2c(cc1OC)-c1c(OC)c(OC)cc3c1C(C2)N(C)CC3 (racemic) [d,l-glaucine hydrobromide]",ED50,cough pulses [2],27.2 mg/kg
same,"ED50 value, comparison in words",cough pulses [2]; 30 min,even lower ED50 value than l-glaucine hydrobromide
same,"suppression of electrically induced spasms, in words",[3]; 4×10^-5 to 6×10^-5,suppress the electrically induced spasms practically completely
same,electrically induced contractions (Table III),[3]; molar concentration 1 × 10^-5,63
same,electrically induced contractions (Table III),[3]; molar concentration 2 × 10^-5,48
same,electrically induced contractions (Table III),[3]; molar concentration 4 × 10^-5,8
same,electrically induced contractions (Table III),[3]; molar concentration 4 × 10^-6,81
same,electrically induced contractions (Table III),[3]; molar concentration 8 × 10^-6,63
same,minimal effective dose,coughing centre,1 mg/kg
same,Duration of cough suppression,coughing centre,44 to 62 min
same,"duration of the effect, in words",coughing centre; at minimal dose,"considerably greater for the d,l-glaucine hydrobromide than for the d-glaucine hydrobromide"
same,Cough pulses percent of control value,cough pulses [7]; 100 mg/kg,30%
same,Cough pulses percent of control value,cough pulses [7]; 200 mg/kg,44%
same,"dose having about the same effect (codeine phosphate vs d,l-glaucine hydrobromide)",cough pulses [7]; guinea pigs,~150 mg per kg of body weight
same,"Cough pulses during 8 minutes, percent of control value, after 1 h",cough pulses [1]; hydrobromide,90%
same,"Cough pulses during 8 minutes, percent of control value, after 3 h",cough pulses [1]; hydrobromide,47%
same,"Cough pulses during 8 minutes, percent of control value, after 5 h",cough pulses [1]; hydrobromide,59%
same,"Cough pulses during 8 minutes, percent of control value, after 24 h",cough pulses [1]; hydrobromide,113%
same,LD50,[4]; [8],686 mg/kg
same,LD50,[4]; [9],320 mg/kg
same,"toxicity, comparison in words",mice,about equal
same,"induced spontaneous activity, in words",[5],without at the same time inducing any spontaneous activity
